Results reported in PubChem BioAssay AID179 (DTP/NCI, 2004).
The source made the active and inactive calls.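 Rule for the calls: active = compounds giving half or more protection of infected cells from virus-caused growth loss, again on retest; inactive = the rest.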

System: CEM cells HIV-1 protection, formazan growth assay
Experiment: NCI AIDS Antiviral Assay
Conditions: for IC50: measured here: growth of uninfected CEM cells
Outline: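 CEM (human) cells, HIV-1 infected vs uninfected, 5-point dosing, formazan growth read-out. Retest threshold 50% protection.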

SMILES	EC50 [µM]	IC50 [µM]	outcome
c1ccc([P+](c2ccccc2)(c2ccccc2)c2ccc([P+](c3ccccc3)(c3ccccc3)c3ccccc3)cc2)cc1	> 74.1	30.9	–
CC1=CCS(=O)(=O)C1C(O)C1=C(C)CCCC1(C)C (stereo not drawn)	> 200	40.7	–
CCCCc1cc(=O)oc2c3c(c4c(c12)OC(C)(C)C=C4)O[C@H](C)[C@@H](C)[C@H]3O	> 63.1	15.5	–
CO[C@H](C(=O)O[C@H]1C(=O)N2CC[C@@H]3CCC[C@H]1C32C)c1ccccc1 (stereo partly drawn)	> 724	437	–
COn1c2ccccc2c2c1cc1ccccc1[n+]2[O-]	> 67.6	31.6	–
CCN(CC)c1ccc2cc(-n3nnc4ccccc43)c(=O)oc2c1	> 8.13	> 8.13	–
COP(=O)(OC)C(NC=O)P(=O)(OC)OC	> 200	> 200	–
FC(F)(F)c1nc2ccc(SSc3ccc4nc(C(F)(F)F)[nH]c4c3)cc2[nH]1	> 100	91.2	–
CCN(CC)c1c(C(=O)/C=C/c2ccc(OC)cc2)c(-c2ccccc2)nn(C)c1=O	> 9.12	> 9.12	–
NC(CCOCCP(=O)(O)O)C(=O)O (stereo not drawn)	> 200	> 200	–
O=c1c2ccccc2oc2nc3ccc(Cl)cc3n12	> 37.2	> 37.2	–
Cc1ccc2oc(=O)c(C#N)c(/C=C/c3ccc(Cl)cc3)c2c1	> 200	> 200	–
CC1CN=C(Cc2ccc(NC(=O)c3ccc(C(=O)Nc4ccc(CC5=NCC(C)N5)cc4)cc3)cc2)N1 (stereo not drawn)	> 200	110	–
COc1ccc2c(c1)CC1(O)COc3cc(OC)ccc3C1O2 (stereo not drawn)	> 200	67.6	–
CC1=NC(=O)C(C)(c2ccccc2)N1CCc1ccccc1 (stereo not drawn)	> 200	45.7	–
CC(c1ccccc1)[P+](c1ccccc1)(c1ccccc1)c1ccccc1 (stereo not drawn)	> 200	1.32	–
Cc1ccc(SC[C@@]2(C(F)F)NC(=O)NC2=O)cc1	> 200	> 200	–
N#C/C(=C\c1ccc[nH]1)C(=O)c1ccccc1	> 309	> 309	–
O=C1C2CC=CCC2C(=O)N1n1c(Cc2ccc(Cl)cc2)n[nH]c1=O (stereo not drawn)	> 200	> 200	–
COC(=O)C(=O)/C=C(/O)c1ccc(OC)cc1	> 200	> 200	–
CC1(C)OCC2OC(n3cnc4c(N)nc(Cl)nc43)C(OS(C)(=O)=O)C2O1 (stereo not drawn)	> 11.2	7.59	–
c1ccc2c(c1)CCc1c(-c3noc4c3CCc3ccccc3-4)noc1-2	> 148	> 148	–
Cc1cn(C2CC(N=[N+]=[N-])C(COC(=O)[C@H]3CCC4[C@@H]5CCC6=CC(=O)CC[C@]6(C)C5[C@@H](O)C[C@@]43C)O2)c(=O)[nH]c1=O (stereo partly drawn)	0.138	24	–

SMILES	EC50 [µM]	IC50 [µM]	outcome
CCOC(=O)N1N(c2ccccc2)C(=O)C1(c1ccccc1)c1ccccc1	> 200	135	–
Brc1ccc(CCc2ncc[nH]2)cc1	> 282	174	–
O=C1c2ccccc2C2C1C(c1ccccc1)C1(Cc3ccccc3C1=O)C2c1ccccc1 (stereo not drawn)	> 200	38.9	–
CN1C(=O)NC2(C1=O)C(=O)N(C)C(=O)N2C (stereo not drawn)	> 1100	> 1100	–
C/C=C\C(=O)C#Cc1cnc(OC)nc1OC	> 2	0.0912	–
CCOC(=O)/C(=C\c1cccc(Cl)c1)P(=O)(OCC)OCC	> 380	81.3	–
NC(=O)NC1C(C(N)=O)N(Cc2ccccc2)C(=O)N1Cc1ccccc1 (stereo not drawn)	> 97.7	> 97.7	–
CN(N)/N=N/c1nc[nH]c1C(N)=O	> 2	1.45	–
Cc1c(C2Cc3ccccc3N2)c2ccccc2n1C (stereo not drawn)	> 603	195	–
CC(=O)Nc1ccc(S(=O)c2ccc(NC(C)=O)cc2)cc1	> 81.3	> 81.3	–
O=[N+]([O-])c1cccc[c]1[Sb](=[O])([OH])[c]1ccccc1[N+](=O)[O-]	> 200	25.1	–
O=c1nc2occc2cn1C1CC(O)C(CO)O1 (stereo not drawn)	> 513	> 513	–
COc1cc2c(cc1O)[C@H](C)C(c1ccc(OC)c(OC)c1)O2 (stereo partly drawn)	> 214	10.5	–
Cc1cc(=O)oc2cc(O)cc(O)c12	> 1290	166	–
Cn1c(=O)c2[nH]cnc2n(CC(=O)O)c1=O	> 1120	> 1120	–
Cc1ccc(/C=C2\CN(C)CC3C2=NN(c2ccccc2)C3c2ccc(C)cc2)cc1 (stereo not drawn)	> 200	> 200	–
CC(=O)c1cccc(NC(=O)C(=O)NNc2n[nH]c(=S)n2N)c1	> 282	6.76	–
O=c1ccc2ccccc2c2ccccc12	> 117	1.66	–
CC1CC(NN(C)C)=C(C#N)C1(C#N)C#N (stereo not drawn)	> 200	11.7	–
CSc1nc2c(c(O)c(C)c(=O)n2C2OC(COC(C)=O)C(OC(C)=O)C(OC(C)=O)C2OC(C)=O)c(=O)n1C (stereo not drawn)	> 44.7	> 44.7	–
CC1C(=O)C(C)C(c2ccccc2)N(N=O)C1c1ccccc1 (stereo not drawn)	> 42.7	> 42.7	–
CN1CCc2ccccc2C(C(=O)c2ccc3c(c2)OCO3)C1=O (stereo not drawn)	> 155	107	–
Cc1cc2c(c(C=Nc3ccccc3O)c1)OC1(C=C2)Oc2ccccc2C(=O)N1C (stereo not drawn)	> 200	25.1	–

SMILES	EC50 [µM]	IC50 [µM]	outcome
COc1cc(/C=C/c2ccc(O)c(OC)c2)cc(OC)c1	> 126	2.14	–
C=CC/C(C(=O)OC)=C(/C(=O)OC)N(CCC)CCC	> 200	33.9	–
CC1(C)CC2=NOS3=C2C(=NO3)C1c1ccccn1 (stereo not drawn)	> 200	95.5	–
Cc1ccccc1S(=O)(=O)N1CCN(S(=O)(=O)c2ccccc2C)CC1	> 200	> 200	–
CCc1c(O)c2c(c(O)c1C(C)=O)C(=O)c1c(cc(O)c(C(=O)O)c1C(=O)O)C2=O	> 33.1	> 33.1	–
C[N+](C)(C)C(CSSCC(C(=O)[O-])[N+](C)(C)C)C(=O)[O-] (stereo not drawn)	> 200	> 200	–
Cc1cc2c(O)c(c1)CN(Cc1ccccc1)Cc1cc(C)cc(c1O)CN(Cc1ccccc1)Cc1cc(C)cc(c1O)CN(Cc1ccccc1)C2	> 50.1	> 50.1	–
COc1ccc(-c2c(C)oc(=O)c(NC(=O)c3ccccc3)c2C)cc1	> 200	57.5	–
CCCCCC12OCC(C)(C)N1O2 (stereo not drawn)	> 200	126	–
O=C(/C=C/c1ccc(OCc2cccc(Cl)c2)cc1)NO	> 200	25.7	–
CC1(C)CCC[C@@]2(C)C1CCC1(C)C(CCc3ccoc3)/C(=C/OS(=O)(=O)O)CCC12 (stereo partly drawn) (tested in a mixture with another compound)	> 145	> 145	–
O=C1N=C(C=c2ccc(=Cc3[nH]c(=O)[nH]c3O)cc2)C(=O)N1	132	> 200	–
Cc1nc(N(CCO)CCO)nc2c1C(=O)Nc1ccccc1N2	> 200	42.7	–
COC1OC(=O)c2ccccc21 (stereo not drawn)	–	–	inactive
CC(C)OC(=O)c1ccc(NCC2=CC(=O)C=CC2=O)cc1Cl	> 200	9.33	–
O=S(=O)(O)C(O)C(F)(F)C(F)(F)C(F)(F)F (stereo not drawn)	> 200	> 200	–
N#Cc1nc(-c2cnccn2)oc1N	> 200	182	–
Cc1ccc(/C([O-])=C(/C(=S)Nc2ccccc2)[n+]2ccccc2)cc1	> 200	> 200	–
CC(=N\N)/C(C)=N/N=C(C)/C(C)=N/N=C(C)/C(C)=N/N=C(C)/C(C)=N/N	> 200	15.8	–
CCOC(=O)N1C/C(=C\c2ccccc2)C(=O)/C(=C/c2ccccc2)C1	> 100	1.82	–
CCC(=O)C(C)C1=Nc2nnc(CCCCCCCc3nnc4n3C(=O)C(C(C)C(=O)CC)=N4)n2C1=O (stereo not drawn)	> 1.07	> 1.07	–
Nc1ccc2c(c1)C1=NNC(=O)CC1C2 (stereo not drawn)	–	–	inactive
O=c1/c(=C/c2ccc(Cl)cc2)sc2nc(-c3ccccc3)nn12	> 200	> 200	–

SMILES	EC50 [µM]	IC50 [µM]	outcome
COCCc1c(C)c(C#N)c2n(C)c3ccccc3n2c1=O	> 200	> 200	–
O=C(c1ccccc1)c1cccc(C(=O)c2ccccc2)n1	> 66.1	> 66.1	–
Cc1ccc2c(c1C)CC1(Cc3c(C)ccc(C)c3C1=O)C2=O (stereo not drawn)	> 100	> 100	–
COC1=CC(=C(c2ccc(O)c(OC)c2)c2ccc(O)c(OC)c2)C=CC1=O	> 200	3.55	–
O=C1c2ccccc2C(=CC=C2c3ccccc3Sc3ccccc32)c2ccccc21	> 9.12	> 9.12	–
COc1ccc2c(c1)CCN1CCc3cc(OC)c(OC)cc3CC21 (stereo not drawn)	> 200	61.7	–
C=CCOCn1ccc(=O)[nH]c1=O	> 200	> 200	–
COC1=CC(=O)c2c(O)c3c(c(O)c2C1=O)C=C(C)OC3O (stereo not drawn)	–	–	inactive
CCOC(=O)Cc1csc(Nc2ccc(OCC)cc2)n1	> 214	145	–
CC1CC(c2ccc(Cl)cc2)=Nc2ccccc2S1 (stereo not drawn)	> 6.92	> 6.92	–
COc1ccc(C2SCC(=O)N2c2ccc(-n3c(-c4ccccc4)nc4ccccc4c3=O)cc2)cc1 (stereo not drawn)	> 200	158	–
CSc1nc2c(N)ncnc2n1C	> 200	> 200	–
COc1ccc(CC[N+](C)(C)C)cc1	> 200	> 200	–
CCCCC1SC2=NCCN2C1(O)c1ccc(Cl)cc1 (stereo not drawn)	> 200	102	–
CC(C)C1SCc2nc3ccccc3n21 (stereo not drawn)	> 200	95.5	–
Cc1cc(=O)n(-c2cc3cccccc-3n2)[nH]1	–	–	inactive
CN(C)/C=N/n1c2ccccc2c2ccccc21	> 200	110	–
O=c1c(-c2ccc(O)cc2)coc2c(C3OC(CO)C(O)C(O)C3O)c(O)ccc12 (stereo not drawn)	> 200	> 200	–
Clc1cc(Cl)cc(C=NC23CC4CC(CC(C4)C2)C3)c1	> 200	44.7	–
CCOC(=O)/C(C#N)=C/c1ccc([N+](=O)[O-])cc1	> 21.4	> 21.4	–
CSC(SC)=C1C(=O)NN=C1C	> 200	> 200	–
NC(N)=Nc1ccc(-c2ccc(N=C(N)N)cc2)cc1	> 200	25.1	–
